Source: the supplement of paper PMC11061612

Assays:
Experiment in all cases: combination Emax (second highest fraction inhibited in the dose matrix, 72 h); higher = more inhibition; extreme values may be limits of the assay
HuO-3N1 (Osteosarcoma) = system: HuO-3N1 (Osteosarcoma)
Procedure, shortened: (§1)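 Cell lines in DMEM/F12 or RPMI with 10% FBS were plated in 1536-well plates, held 24 hours at 37°C, 5% CO2, then given two-drug dose matrices for 72 hours (DMSO typically 0.2%). Viability was read by CellTiter-Glo 2.0 luminescence and scaled as inhibition from 0 (vehicle wells) to 1 (blank wells). Combination Emax is the second-highest inhibition in the matrix; Bliss excess is observed combination effect minus expected EA + EB − EA·EB, EA and EB being single-agent effects.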

[1] = system: RERF-LC-KJ (Lung Adenocarcinoma)
Procedure, shortened: as §1

[2] = system: PANC-02-03 (Pancreatic Carcinoma)
Procedure, shortened: as §1

KYM-1 (Rhabdomyosarcoma) = system: KYM-1 (Rhabdomyosarcoma)
Procedure, shortened: as §1

| Structure (SMILES) | combination Emax (HuO-3N1 (Osteosarcoma)) | combination Emax [1] | combination Emax [2] | combination Emax (KYM-1 (Rhabdomyosarcoma)) |
| --- | --- | --- | --- | --- |
| CCN(CCO)CCCOc1ccc2c(Nc3cc(CC(=O)Nc4cccc(F)c4)[nH]n3)ncnc2c1 [AZD2811] + C[C@@H]1COCCN1C2=NC(=NC(=C2)C3(CC3)[S@](=N)(=O)C)C4=C5C=CNC5=NC=C4 [AZD6738] (first compound max 1 µM, 7x7, partner max 10 µM) | 0.339 | 0.319 | 0.62 | 0.762 |
| Cc1cc2ncnn2cc1Nc1ncc2c(n1)n(C1CCOCC1)c(=O)n2C [AZD7648] + CCN(CCO)CCCOc1ccc2c(Nc3cc(CC(=O)Nc4cccc(F)c4)[nH]n3)ncnc2c1 [AZD2811] (first compound max 10 µM, 7x7, partner max 1 µM) | 0.35 | 0.455 | 0.254 | 0.182 |
| Cc1cc2ncnn2cc1Nc1ncc2c(n1)n(C1CCOCC1)c(=O)n2C [AZD7648] + C=CCn1c(=O)c2cnc(Nc3ccc(N4CCN(C)CC4)cc3)nc2n1-c1cccc(C(C)(C)O)n1 [AZD1775] (first compound max 10 µM, partner max 1 µM) | 0.417 | 0.345 | 0.515 | 0.33 |
| COc1cccc2c1C(=O)c1c(O)c3c(c(O)c1C2=O)C[C@@](O)(C(=O)CO)C[C@@H]3O[C@H]1C[C@H](N)[C@H](O)[C@H](C)O1 [Doxorubicin] + Cc1cc2ncnn2cc1Nc1ncc2c(n1)n(C1CCOCC1)c(=O)n2C [AZD7648] (first compound max 1 µM, 7x7, partner max 10 µM) | 0.81 | 0.711 | 0.506 | 0.956 |
| CC1(C)CCC(CN2CCN(c3ccc(C(=O)NS(=O)(=O)c4ccc(NCC5CCOCC5)c([N+](=O)[O-])c4)c(Oc4cnc5[nH]ccc5c4)c3)CC2)=C(c2ccc(Cl)cc2)C1 [Venetoclax] + C[C@@H](Nc1cc(F)cc(F)c1)c1cc(C(=O)N(C)C)cc2c(=O)cc(N3CCOCC3)oc12 [AZD8186] (first compound max 1 µM, 7x7, partner max 3 µM) | 0.269 | 0.195 | 0.147 | 0.162 |
| CN(C)CCCOc1ccc(-c2ccc3ncc4c(c3c2)n(C2CCOCC2)c(=O)n4C)cn1 [AZD0156] + C=CCn1c(=O)c2cnc(Nc3ccc(N4CCN(C)CC4)cc3)nc2n1-c1cccc(C(C)(C)O)n1 [AZD1775] (first compound max 1 µM, partner max 1 µM) | 0.183 | 0.33 | 0.672 | 0.355 |
| CN(CCO)CC[C@H](CSc1ccccc1)Nc1ccc(S(=O)(=O)NC(=O)c2ccc(N3CCC([C@@H](O)c4ccccc4-c4ccc(Cl)cc4)CC3)cc2)cc1S(=O)(=O)C(F)(F)F [AZD4320] + Cn1cnc2c(F)c(Nc3ccc(Br)cc3Cl)c(C(=O)NOCCO)cc21 [Selumetinib] (first compound max 1 µM, 7x7, partner max 3 µM) | 0.221 | 0.298 | 0.55 | 0.203 |
| CC1(C)CCC(CN2CCN(c3ccc(C(=O)NS(=O)(=O)c4ccc(NCC5CCOCC5)c([N+](=O)[O-])c4)c(Oc4cnc5[nH]ccc5c4)c3)CC2)=C(c2ccc(Cl)cc2)C1 [Venetoclax] + Cn1cnc2c(F)c(Nc3ccc(Br)cc3Cl)c(C(=O)NOCCO)cc21 [Selumetinib] (first compound max 1 µM, 7x7, partner max 3 µM) | 0.146 | 0.185 | 0.367 | 0.124 |
| Cc1c2c(nn1C)CSCc1cc(n(C)n1)CSc1cc(c3ccccc3c1)OCCCc1c(C(=O)O)n(C)c3c-2c(Cl)ccc13 [AZD5991] + C1CN(CCC1(C(=O)N[C@@H](CCO)C2=CC=C(C=C2)Cl)N)C3=NC=NC4=C3C=CN4 [Capivasertib] (first compound max 1 µM, 7x7, partner max 3 µM) | 0.881 | 0.495 | 0.179 | 0.466 |
| Cc1cc2ncnn2cc1Nc1ncc2c(n1)n(C1CCOCC1)c(=O)n2C [AZD7648] + C[C@@H]1COCCN1C2=NC(=NC(=C2)C3(CC3)[S@](=N)(=O)C)C4=C5C=CNC5=NC=C4 [AZD6738] (first compound max 10 µM, 7x7, partner max 10 µM) | 0.331 | 0.349 | 0.555 | 0.697 |
| Cc1c2c(nn1C)CSCc1cc(n(C)n1)CSc1cc(c3ccccc3c1)OCCCc1c(C(=O)O)n(C)c3c-2c(Cl)ccc13 [AZD5991] + C[C@@H]1COCCN1C2=NC(=NC(=C2)C3(CC3)[S@](=N)(=O)C)C4=C5C=CNC5=NC=C4 [AZD6738] (first compound max 1 µM, 7x7, partner max 10 µM) | 0.894 | 0.465 | 0.528 | 0.924 |
| C[C@@H]1COCCN1c1cc(C2([S@](C)(=N)=O)CC2)nc(-c2ccnc3[nH]ccc23)n1 [AZD6738] + O=C(c1cc(Cc2n[nH]c(=O)c3ccccc23)ccc1F)N1CCN(C(=O)C2CC2)CC1 [Olaparib] (first compound max 10 µM, 7x7, partner max 10 µM) | 0.339 | 0.326 | 0.692 | 0.792 |
| Cc1cc2ncnn2cc1Nc1ncc2c(n1)n(C1CCOCC1)c(=O)n2C [AZD7648] + CN(C)CCCOc1ccc(-c2ccc3ncc4c(c3c2)n(C2CCOCC2)c(=O)n4C)cn1 [AZD0156] (first compound max 10 µM, 7x7, partner max 1 µM) | 0.369 | 0.314 | 0.236 | 0.165 |
| Cc1c2c(nn1C)CSCc1cc(n(C)n1)CSc1cc(c3ccccc3c1)OCCCc1c(C(=O)O)n(C)c3c-2c(Cl)ccc13 [AZD5991] + Cc1cc2ncnn2cc1Nc1ncc2c(n1)n(C1CCOCC1)c(=O)n2C [AZD7648] (first compound max 1 µM, 7x7, partner max 10 µM) | 0.85 | 0.48 | 0.183 | 0.265 |
| CN(CCO)CC[C@H](CSc1ccccc1)Nc1ccc(S(=O)(=O)NC(=O)c2ccc(N3CCC([C@@H](O)c4ccccc4-c4ccc(Cl)cc4)CC3)cc2)cc1S(=O)(=O)C(F)(F)F [AZD4320] + C=CCn1c(=O)c2cnc(Nc3ccc(N4CCN(C)CC4)cc3)nc2n1-c1cccc(C(C)(C)O)n1 [AZD1775] (first compound max 1 µM, partner max 1 µM) | 0.349 | 0.272 | 0.585 | 0.617 |
| Cc1c2c(nn1C)CSCc1cc(n(C)n1)CSc1cc(c3ccccc3c1)OCCCc1c(C(=O)O)n(C)c3c-2c(Cl)ccc13 [AZD5991] + Cn1cnc2c(F)c(Nc3ccc(Br)cc3Cl)c(C(=O)NOCCO)cc21 [Selumetinib] (first compound max 1 µM, 7x7, partner max 3 µM) | 0.832 | 0.516 | 0.524 | 0.259 |
| C=CCn1c(=O)c2cnc(Nc3ccc(N4CCN(C)CC4)cc3)nc2n1-c1cccc(C(C)(C)O)n1 [AZD1775] + O=C(c1cc(Cc2n[nH]c(=O)c3ccccc23)ccc1F)N1CCN(C(=O)C2CC2)CC1 [Olaparib] (first compound max 1 µM, partner max 10 µM) | 0.2 | 0.276 | 0.667 | 0.563 |
| CC1(C)CCC(CN2CCN(c3ccc(C(=O)NS(=O)(=O)c4ccc(NCC5CCOCC5)c([N+](=O)[O-])c4)c(Oc4cnc5[nH]ccc5c4)c3)CC2)=C(c2ccc(Cl)cc2)C1 [Venetoclax] + C1CN(CCC1(C(=O)N[C@@H](CCO)C2=CC=C(C=C2)Cl)N)C3=NC=NC4=C3C=CN4 [Capivasertib] (first compound max 1 µM, 7x7, partner max 3 µM) | 0.242 | 0.377 | 0.189 | 0.0721 |
| Cc1c2c(nn1C)CSCc1cc(n(C)n1)CSc1cc(c3ccccc3c1)OCCCc1c(C(=O)O)n(C)c3c-2c(Cl)ccc13 [AZD5991] + CC1(C)CCC(CN2CCN(c3ccc(C(=O)NS(=O)(=O)c4ccc(NCC5CCOCC5)c([N+](=O)[O-])c4)c(Oc4cnc5[nH]ccc5c4)c3)CC2)=C(c2ccc(Cl)cc2)C1 [Venetoclax] (first compound max 1 µM, 7x7, partner max 1 µM) | 0.733 | 0.444 | 0.138 | 0.592 |
| CC1(C)CCC(CN2CCN(c3ccc(C(=O)NS(=O)(=O)c4ccc(NCC5CCOCC5)c([N+](=O)[O-])c4)c(Oc4cnc5[nH]ccc5c4)c3)CC2)=C(c2ccc(Cl)cc2)C1 [Venetoclax] + Cc1cc2ncnn2cc1Nc1ncc2c(n1)n(C1CCOCC1)c(=O)n2C [AZD7648] (first compound max 1 µM, 7x7, partner max 10 µM) | 0.228 | 0.357 | 0.208 | 0.159 |
| CC(=O)Nc1cccc(-n2c(=O)n(C3CC3)c(=O)c3c(Nc4ccc(I)cc4F)n(C)c(=O)c(C)c32)c1 [Trametinib] + Cc1nc(-c2cn3c(n2)-c2ccc(-c4cnn(C(C)(C)C(N)=O)c4)cc2OCC3)n(C(C)C)n1 [Taselisib] (first compound max 1 µM, 7x7, partner max 10 µM) | 0.461 | 0.727 | 0.939 | 0.4 |
| CN(CCO)CC[C@H](CSc1ccccc1)Nc1ccc(S(=O)(=O)NC(=O)c2ccc(N3CCC([C@@H](O)c4ccccc4-c4ccc(Cl)cc4)CC3)cc2)cc1S(=O)(=O)C(F)(F)F [AZD4320] + C[C@@H](Nc1cc(F)cc(F)c1)c1cc(C(=O)N(C)C)cc2c(=O)cc(N3CCOCC3)oc12 [AZD8186] (first compound max 1 µM, 7x7, partner max 3 µM) | 0.441 | 0.431 | 0.278 | 0.197 |
| COc1cccc(OCCCN)c1-c1cc(Nc2cnc(C#N)cn2)n[nH]1 [Prexasertib] + C=CCn1c(=O)c2cnc(Nc3ccc(N4CCN(C)CC4)cc3)nc2n1-c1cccc(C(C)(C)O)n1 [AZD1775] (first compound max 1 µM, partner max 1 µM) | 0.756 | 0.435 | 0.662 | 0.966 |
| Cc1c2c(nn1C)CSCc1cc(n(C)n1)CSc1cc(c3ccccc3c1)OCCCc1c(C(=O)O)n(C)c3c-2c(Cl)ccc13 [AZD5991] + C[C@@H](Nc1cc(F)cc(F)c1)c1cc(C(=O)N(C)C)cc2c(=O)cc(N3CCOCC3)oc12 [AZD8186] (first compound max 1 µM, 7x7, partner max 3 µM) | 0.893 | 0.527 | 0.232 | 0.497 |
| CCN(CCO)CCCOc1ccc2c(Nc3cc(CC(=O)Nc4cccc(F)c4)[nH]n3)ncnc2c1 [AZD2811] + O=C(c1cc(Cc2n[nH]c(=O)c3ccccc23)ccc1F)N1CCN(C(=O)C2CC2)CC1 [Olaparib] (first compound max 1 µM, 7x7, partner max 10 µM) | 0.178 | 0.333 | 0.307 | 0.402 |
